Assay results from paper PMC12140300, “Development of Carbon‐11 Labeled Pyrimidine Derivatives as Novel Positron Emission Tomography (PET) Agents Enabling Brain Sigma‐1 Receptor Imaging” (Advanced Science, 2025).

Test system: σ1R
Experiment: NHP PET/MR imaging with kinetic modelling, baseline and self-blocking
Assay type: in vivo
Details: for VT, Logan graphical method [T* = 40 min] / VT, Two tissue compartment model [2TCM] / VT, One tissue compartment model [1TCM]: male NHP brain
Description: Next, we conducted PET/MR imaging studies using [^11C]CNY‐01 in non‐human primates (NHP) to evaluate its safety and translational potential in large animals further. A 90‐minute dynamic PET scan with [^11C]CNY‐01 focusing on the head of a male rhesus monkey. We performed a full kinetic analysis with one‐ and two‐tissue compartment models (1TCM and 2TCM), as well as logan graphical analysis (LGA), using metabolite‐corrected arterial input function (AIF), similar to previous studies,^[ [44], [45] ^] to determine which model best suit kinetics of [^11C]CNY‐01. In most brain regions, 2TCM provided a better fit than 1TCM, as indicated by the Akaike information criterion (AIC) and model selection criterion (MSC) (Table 1). […] To test whether non‐parametric graphical approaches can be used for [^11C]CNY‐01, we performed LGA with an assumption of steady‐state time (T*) of 40 mins (Table 1). […] For voxel‐wise estimation of VT across the whole brain, we then used LGA (Figure 4A).
We also performed a self‐blocking scan for [^11C]CNY‐01, administering 0.5 mg kg^−1 of unlabeled CNY‐01 10 min before the radiotracer. The metabolism of the radiotracer in the blocking scan was similar to that of the baseline (Figure S6, Supporting Information). The radioactivity concentration was lower in arterial blood samples in the blocking scan compared to the baseline, while brain uptake was higher in the blocking scan (Figure S6, Supporting Information). […] The variation of the radiotracer plasma protein binding (fp) between baseline and blocking scan may explain our observation in a way similar to that of the previous study.^[ [46] ^] Nonetheless, due to this study's lack of fp data, the exact explanation for our observation remains to be determined further.
The PET/MR imaging protocol in non‐human primates (NHP) followed our previous work.^[ [55], [56] ^] A male rhesus macaque (8.55 kg) was anesthetized with an intramuscular injection of xylazine (0.5–2.0 mg kg^−1) and ketamine (10 mg kg^−1), followed by endotracheal intubation. V‐ and A‐lines were inserted, and anesthesia was maintained using isoflurane. [^11C] CNY‐01 was administered after antecubital catheterization, with an arterial line prepared for radiometabolite analysis. In the self‐blocking scan, the same animal (6.80 kg) was scanned with a 10‐min pre‐treatment of 0.5 mg kg^−1 unlabeled CNY‐01. PET/MR imaging data were acquired using a Siemens TIM‐Trio scanner (3T) equipped with a Siemens BrainPET insert module and an in‐house‐built 8‐channel head coil. The dynamic scan began, followed by administration of [^11C] CNY‐01 (5.1 mCi). The list mode data were reconstructed using the 3D ordinary Poisson expectation‐maximization algorithm (16 subsets and 6 iterations) with detector efficiency, decay, dead time, random coincidences, scatter, and attenuation corrections with gradually increasing time frams. All images were reconstructed into 153 slices with 256 × 256 pixels and 1.25‐mm isotropic voxel size. High‐resolution structural MRI scans were acquired by using a multi‐echo magnetization‐prepared rapid gradient echo (ME‐MPRAGE) sequence with parameters as follows: TR = 2400 ms; TE1/TE2/TE3/TE4 = 1.57/3.29/5.01/6.73 ms; inversion time = 1200 ms; flip angle = 9°; spatial resolution = 1 mm isotropic.
For macaque brain PET/MR imaging analysis, we applied the INIA19 Template^[ [57] ^] and NeuroMaps Atlas in accordance with our prior work.^[ [58] ^] In brief, reconstructed PET images were registered to the INIA19 Primate Brain Atlas^[ [57] ^] with the following processing steps^[ [59] ^]: The high‐resolution T1‐weighted MR image, co‐registered with the PET image, was first affine‐registered to the INIA19 atlas. By using the same transformation, dynamic PET data was registered to the atlas. A spatial smoothing with a 6‐mm FWHM Gaussian kernel was applied to PET images. Twenty ROIs determined in the INIA19 atlas were used to derive regional TACs. […]

[1] = ACC, 10-min pretreatment of unlabeled CNY-01 (0.5 mg kg^−1)
[2] = Amygdala, 10-min pretreatment of unlabeled CNY-01 (0.5 mg kg^−1)
[3] = CBL, 10-min pretreatment of unlabeled CNY-01 (0.5 mg kg^−1)
[4] = Caudate, 10-min pretreatment of unlabeled CNY-01 (0.5 mg kg^−1)
[5] = Globus-pallidus, 10-min pretreatment of unlabeled CNY-01 (0.5 mg kg^−1)
[6] = Hippocampus, 10-min pretreatment of unlabeled CNY-01 (0.5 mg kg^−1)
[7] = Hypothalamus, 10-min pretreatment of unlabeled CNY-01 (0.5 mg kg^−1)
[8] = Ifc, 10-min pretreatment of unlabeled CNY-01 (0.5 mg kg^−1)
[9] = Insula, 10-min pretreatment of unlabeled CNY-01 (0.5 mg kg^−1)
[10] = Midbrain, 10-min pretreatment of unlabeled CNY-01 (0.5 mg kg^−1)
[11] = Motor, 10-min pretreatment of unlabeled CNY-01 (0.5 mg kg^−1)

Cc1nc(-c2ccc(O[11CH3])cc2)nc(OCCCN2CCCCC2)c1Cl [[^11C]CNY-01]
VT in blocking scan compared to baseline (0.5 mg kg^−1 unlabeled CNY-01 10 min before the radiotracer, NHP): higher VT across the brain | VT, Logan graphical method [T* = 40 min] [1]: 29.37 ml/cm^3 | VT, Two tissue compartment model [2TCM] [1]: 25.84 ml/cm^3 | VT, Logan graphical method [T* = 40 min] (ACC, baseline): 13.32 mL cm^−3 | VT, One tissue compartment model [1TCM] (ACC, baseline): 9.76 mL cm^−3 | VT, Two tissue compartment model [2TCM] (ACC, baseline): 15.87 mL cm^−3 | VT, Logan graphical method [T* = 40 min] [2]: 34.47 ml/cm^3 | VT, Two tissue compartment model [2TCM] [2]: 29.18 ml/cm^3 | VT, Logan graphical method [T* = 40 min] (Amygdala, baseline): 14.75 mL cm^−3 | VT, One tissue compartment model [1TCM] (Amygdala, baseline): 10.83 mL cm^−3 | VT, Two tissue compartment model [2TCM] (Amygdala, baseline): 13.78 mL cm^−3 | VT, Logan graphical method [T* = 40 min] [3]: 21.96 ml/cm^3 | VT, Two tissue compartment model [2TCM] [3]: 18.25 ml/cm^3 | VT, Logan graphical method [T* = 40 min] (CBL, baseline): 11.65 mL cm^−3 | VT, One tissue compartment model [1TCM] (CBL, baseline): 8.96 mL cm^−3 | VT, Two tissue compartment model [2TCM] (CBL, baseline): 11.68 mL cm^−3 | VT, Logan graphical method [T* = 40 min] [4]: 28.10 ml/cm^3 | VT, Two tissue compartment model [2TCM] [4]: 24.46 ml/cm^3 | VT, Logan graphical method [T* = 40 min] (Caudate, baseline): 12.71 mL cm^−3 | VT, One tissue compartment model [1TCM] (Caudate, baseline): 9.58 mL cm^−3 | VT, Two tissue compartment model [2TCM] (Caudate, baseline): 14.24 mL cm^−3 | VT, Logan graphical method [T* = 40 min] [5]: 33.31 ml/cm^3 | VT, Two tissue compartment model [2TCM] [5]: 26.67 ml/cm^3 | VT, Logan graphical method [T* = 40 min] (Globus-pallidus, baseline): 15.11 mL cm^−3 | VT, One tissue compartment model [1TCM] (Globus-pallidus, baseline): 11.32 mL cm^−3 | VT, Two tissue compartment model [2TCM] (Globus-pallidus, baseline): 14.90 mL cm^−3 | VT, Logan graphical method [T* = 40 min] [6]: 24.15 ml/cm^3 | VT, Two tissue compartment model [2TCM] [6]: 18.46 ml/cm^3 | VT, Logan graphical method [T* = 40 min] (Hippocampus, baseline): 10.31 mL cm^−3 | VT, One tissue compartment model [1TCM] (Hippocampus, baseline): 8.04 mL cm^−3 | VT, Two tissue compartment model [2TCM] (Hippocampus, baseline): 10.36 mL cm^−3 | VT, Logan graphical method [T* = 40 min] [7]: 24.54 ml/cm^3 | VT, Two tissue compartment model [2TCM] [7]: 18.97 ml/cm^3 | VT, Logan graphical method [T* = 40 min] (Hypothalamus, baseline): 11.42 mL cm^−3 | VT, One tissue compartment model [1TCM] (Hypothalamus, baseline): 8.36 mL cm^−3 | VT, Two tissue compartment model [2TCM] (Hypothalamus, baseline): 10.60 mL cm^−3 | VT, Logan graphical method [T* = 40 min] [8]: 20.73 ml/cm^3 | VT, Two tissue compartment model [2TCM] [8]: 18.09 ml/cm^3 | VT, Logan graphical method [T* = 40 min] (Ifc, baseline): 9.62 mL cm^−3 | VT, One tissue compartment model [1TCM] (Ifc, baseline): 7.36 mL cm^−3 | VT, Two tissue compartment model [2TCM] (Ifc, baseline): 10.89 mL cm^−3 | VT, Logan graphical method [T* = 40 min] [9]: 31.86 ml/cm^3 | VT, Two tissue compartment model [2TCM] [9]: 26.77 ml/cm^3 | VT, Logan graphical method [T* = 40 min] (Insula, baseline): 14.70 mL cm^−3 | VT, One tissue compartment model [1TCM] (Insula, baseline): 11.17 mL cm^−3 | VT, Two tissue compartment model [2TCM] (Insula, baseline): 13.96 mL cm^−3 | VT, Logan graphical method [T* = 40 min] [10]: 34.11 ml/cm^3 | VT, Two tissue compartment model [2TCM] [10]: 25.70 ml/cm^3 | VT, Logan graphical method [T* = 40 min] (Midbrain, baseline): 13.39 mL cm^−3 | VT, One tissue compartment model [1TCM] (Midbrain, baseline): 11.03 mL cm^−3 | VT, Two tissue compartment model [2TCM] (Midbrain, baseline): 14.71 mL cm^−3 | VT, Logan graphical method [T* = 40 min] [11]: 21.53 ml/cm^3 | VT, Two tissue compartment model [2TCM] [11]: 16.66 ml/cm^3 | VT, Logan graphical method [T* = 40 min] (Motor, baseline): 9.39 mL cm^−3
